Measured values taken from ChEMBL document CHEMBL1201862, “PubChem BioAssay data set” (2004).
Calls of active or inactive are those of the source.

Legend:
cells = format: functional, cell-based
[1] = target: T1, Histone-lysine N-methyltransferase NSD2 (Homo sapiens, UniProt O96028); format: biochemical
T1 sequence (O96028 whole entry): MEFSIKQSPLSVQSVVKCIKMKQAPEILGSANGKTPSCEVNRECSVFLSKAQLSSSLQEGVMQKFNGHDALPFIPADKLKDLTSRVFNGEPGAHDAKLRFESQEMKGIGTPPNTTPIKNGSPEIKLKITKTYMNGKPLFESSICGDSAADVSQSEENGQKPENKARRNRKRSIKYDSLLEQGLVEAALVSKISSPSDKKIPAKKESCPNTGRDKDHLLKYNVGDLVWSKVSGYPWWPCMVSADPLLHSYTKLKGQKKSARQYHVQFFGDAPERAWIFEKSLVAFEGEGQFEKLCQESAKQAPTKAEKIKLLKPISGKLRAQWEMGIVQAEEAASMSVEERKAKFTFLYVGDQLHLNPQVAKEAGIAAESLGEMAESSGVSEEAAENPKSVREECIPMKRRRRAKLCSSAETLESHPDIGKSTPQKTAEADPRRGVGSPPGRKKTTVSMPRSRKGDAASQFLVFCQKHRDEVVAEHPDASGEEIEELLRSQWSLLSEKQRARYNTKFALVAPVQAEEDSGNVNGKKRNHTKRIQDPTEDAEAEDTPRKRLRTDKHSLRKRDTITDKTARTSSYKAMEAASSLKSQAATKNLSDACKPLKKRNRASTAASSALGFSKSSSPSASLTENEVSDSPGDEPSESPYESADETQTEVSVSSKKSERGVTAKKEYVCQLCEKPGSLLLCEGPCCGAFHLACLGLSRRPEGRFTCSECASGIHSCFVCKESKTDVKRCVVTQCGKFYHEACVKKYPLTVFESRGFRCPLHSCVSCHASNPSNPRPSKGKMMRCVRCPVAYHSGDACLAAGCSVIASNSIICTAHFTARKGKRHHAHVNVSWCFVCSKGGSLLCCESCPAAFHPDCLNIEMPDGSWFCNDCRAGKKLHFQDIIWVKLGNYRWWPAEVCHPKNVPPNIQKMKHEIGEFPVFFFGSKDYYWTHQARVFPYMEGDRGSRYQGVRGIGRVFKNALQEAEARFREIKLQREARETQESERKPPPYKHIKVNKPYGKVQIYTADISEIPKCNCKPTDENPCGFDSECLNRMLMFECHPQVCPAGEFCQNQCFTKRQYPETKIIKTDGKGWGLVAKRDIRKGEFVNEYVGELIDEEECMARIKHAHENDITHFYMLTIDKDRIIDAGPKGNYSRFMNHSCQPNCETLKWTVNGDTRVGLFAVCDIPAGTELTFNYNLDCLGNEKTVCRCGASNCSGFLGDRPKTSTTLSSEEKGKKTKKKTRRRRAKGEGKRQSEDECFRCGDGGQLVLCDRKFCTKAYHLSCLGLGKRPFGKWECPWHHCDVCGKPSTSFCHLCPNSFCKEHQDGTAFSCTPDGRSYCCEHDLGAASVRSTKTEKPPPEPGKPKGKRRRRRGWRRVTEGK

[2] = target: Protein kinase C zeta type (Homo sapiens, UniProt Q05513); format: functional;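 also: measured as one member of a broad kinase profiling panel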
[3] = target: cGMP-dependent protein kinase 1 (Homo sapiens, UniProt Q13976); format: functional;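 also: value from a kinome panel screen with PRKG1 as the panel member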
[4] = target: Serine/threonine-protein kinase PLK4 (Homo sapiens, UniProt O00444); format: functional;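 also: PLK4 measured as one member of a kinome-wide kinase profiling panel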
[5] = target: Cyclin-dependent kinase 2 (Homo sapiens, UniProt P24941); format: functional;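 also: CDK2 measured as one member of a broad kinome profiling panel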
[6] = target: Tyrosine-protein kinase ITK/TSK (Homo sapiens, UniProt Q08881); format: functional;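 also: affinity for ITK measured as one member of a broad kinase panel profiling binding across the kinome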
[7] = target: Proto-oncogene tyrosine-protein kinase ROS (Homo sapiens, UniProt P08922); format: functional;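 also: ROS1 tested as one member of a kinome-wide kinase panel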
[8] = target: Receptor tyrosine-protein kinase erbB-2 (Homo sapiens, UniProt P04626); assay: Navigating the Kinome. Panel member name: ERBB2; format: functional
[9] = target: Mitogen-activated protein kinase 1 (Homo sapiens, UniProt P28482); format: functional
[10] = target: T2, Interleukin-1 receptor-associated kinase 4 (Homo sapiens, UniProt Q9NWZ3); format: functional
T2 sequence (Q9NWZ3 whole entry): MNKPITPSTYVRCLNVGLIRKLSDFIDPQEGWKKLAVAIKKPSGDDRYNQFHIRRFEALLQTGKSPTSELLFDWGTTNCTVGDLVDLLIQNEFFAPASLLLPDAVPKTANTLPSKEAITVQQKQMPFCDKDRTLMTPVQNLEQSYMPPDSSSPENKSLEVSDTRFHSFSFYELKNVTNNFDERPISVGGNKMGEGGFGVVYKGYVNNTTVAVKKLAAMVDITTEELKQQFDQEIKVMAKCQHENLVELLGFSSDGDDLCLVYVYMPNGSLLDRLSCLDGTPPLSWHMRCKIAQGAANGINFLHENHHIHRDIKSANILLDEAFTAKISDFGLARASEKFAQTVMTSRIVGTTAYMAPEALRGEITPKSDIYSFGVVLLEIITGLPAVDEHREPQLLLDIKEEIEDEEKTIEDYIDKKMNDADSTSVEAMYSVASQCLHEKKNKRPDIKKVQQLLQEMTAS

[11] = target: RAC-alpha serine/threonine-protein kinase (Homo sapiens, UniProt P31749); format: functional;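 also: AKT1 affinity measured as one member of a kinome-wide kinase profiling panel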
[12] = target: Calcium/calmodulin-dependent protein kinase type 1 (Homo sapiens, UniProt Q14012); format: functional
[13] = target: Serine/threonine-protein kinase pim-2 (Homo sapiens, UniProt Q9P1W9); format: functional;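 also: value comes from a broad kinase panel profiling study in which PIM2 was one of the panel members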
[14] = target: Lymphokine-activated killer T-cell-originated protein kinase (Homo sapiens, UniProt Q96KB5); format: functional;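 also: value comes from a kinase panel screen in which TOPK was one of the panel members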
[15] = target: Tyrosine-protein kinase FRK (Homo sapiens, UniProt P42685); format: functional;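 also: FRK tested as one member of a kinome panel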
Sequence of Tyrosine-protein kinase FRK (P42685 whole entry): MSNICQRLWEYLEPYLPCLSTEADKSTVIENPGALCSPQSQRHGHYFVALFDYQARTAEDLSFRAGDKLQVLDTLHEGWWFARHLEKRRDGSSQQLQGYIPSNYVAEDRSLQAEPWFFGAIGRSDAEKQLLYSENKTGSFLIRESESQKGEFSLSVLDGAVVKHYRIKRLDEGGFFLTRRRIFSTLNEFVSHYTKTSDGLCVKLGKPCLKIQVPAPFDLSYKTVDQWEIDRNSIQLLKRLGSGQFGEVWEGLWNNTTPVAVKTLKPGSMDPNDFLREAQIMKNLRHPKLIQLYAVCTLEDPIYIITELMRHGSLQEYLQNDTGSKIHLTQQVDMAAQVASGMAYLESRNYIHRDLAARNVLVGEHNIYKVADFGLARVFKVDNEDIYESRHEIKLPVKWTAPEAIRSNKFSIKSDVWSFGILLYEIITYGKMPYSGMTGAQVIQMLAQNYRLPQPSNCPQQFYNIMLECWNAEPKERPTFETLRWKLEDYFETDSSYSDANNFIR

Sequence of Tyrosine-protein kinase ITK/TSK (Q08881 whole entry): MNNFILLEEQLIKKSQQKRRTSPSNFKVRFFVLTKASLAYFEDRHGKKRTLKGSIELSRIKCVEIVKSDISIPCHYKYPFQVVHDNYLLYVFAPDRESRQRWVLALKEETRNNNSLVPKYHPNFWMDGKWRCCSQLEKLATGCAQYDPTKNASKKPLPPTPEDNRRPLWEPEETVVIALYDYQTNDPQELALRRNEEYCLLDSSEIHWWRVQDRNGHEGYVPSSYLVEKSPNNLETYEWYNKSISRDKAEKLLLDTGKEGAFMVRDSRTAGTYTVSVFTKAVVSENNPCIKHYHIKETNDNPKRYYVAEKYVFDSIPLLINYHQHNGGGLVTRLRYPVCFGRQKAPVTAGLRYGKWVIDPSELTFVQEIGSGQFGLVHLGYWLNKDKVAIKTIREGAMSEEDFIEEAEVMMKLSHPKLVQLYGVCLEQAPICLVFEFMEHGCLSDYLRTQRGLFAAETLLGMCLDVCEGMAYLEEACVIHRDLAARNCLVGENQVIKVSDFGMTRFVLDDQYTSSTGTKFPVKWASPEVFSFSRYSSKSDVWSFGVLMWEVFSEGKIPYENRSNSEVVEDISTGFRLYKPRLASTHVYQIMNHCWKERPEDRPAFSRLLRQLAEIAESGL
Sequence of Mitogen-activated protein kinase 1 (P28482 whole entry): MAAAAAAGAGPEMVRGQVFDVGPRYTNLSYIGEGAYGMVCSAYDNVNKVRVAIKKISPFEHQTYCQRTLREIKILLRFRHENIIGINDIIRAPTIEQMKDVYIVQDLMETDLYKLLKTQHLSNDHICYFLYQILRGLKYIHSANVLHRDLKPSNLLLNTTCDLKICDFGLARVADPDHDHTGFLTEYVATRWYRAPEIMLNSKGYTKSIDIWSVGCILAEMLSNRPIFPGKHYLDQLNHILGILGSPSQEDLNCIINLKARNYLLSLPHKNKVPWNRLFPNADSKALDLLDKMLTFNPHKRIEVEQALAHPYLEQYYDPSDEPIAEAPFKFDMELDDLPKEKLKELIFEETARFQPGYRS
Sequence of RAC-alpha serine/threonine-protein kinase (P31749 whole entry): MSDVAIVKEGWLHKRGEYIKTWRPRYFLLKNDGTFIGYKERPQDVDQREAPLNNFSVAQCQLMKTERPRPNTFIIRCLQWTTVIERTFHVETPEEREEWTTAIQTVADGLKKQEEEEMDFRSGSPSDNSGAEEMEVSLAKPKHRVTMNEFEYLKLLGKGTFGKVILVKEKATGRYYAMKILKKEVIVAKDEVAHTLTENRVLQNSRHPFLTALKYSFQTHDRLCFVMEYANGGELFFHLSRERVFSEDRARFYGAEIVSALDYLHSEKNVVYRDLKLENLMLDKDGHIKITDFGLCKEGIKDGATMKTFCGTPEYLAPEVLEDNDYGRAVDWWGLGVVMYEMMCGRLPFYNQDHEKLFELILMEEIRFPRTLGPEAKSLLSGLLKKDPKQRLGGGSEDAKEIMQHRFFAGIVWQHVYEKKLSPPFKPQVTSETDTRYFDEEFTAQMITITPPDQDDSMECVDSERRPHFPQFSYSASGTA
Sequence of Protein kinase C zeta type (Q05513 whole entry): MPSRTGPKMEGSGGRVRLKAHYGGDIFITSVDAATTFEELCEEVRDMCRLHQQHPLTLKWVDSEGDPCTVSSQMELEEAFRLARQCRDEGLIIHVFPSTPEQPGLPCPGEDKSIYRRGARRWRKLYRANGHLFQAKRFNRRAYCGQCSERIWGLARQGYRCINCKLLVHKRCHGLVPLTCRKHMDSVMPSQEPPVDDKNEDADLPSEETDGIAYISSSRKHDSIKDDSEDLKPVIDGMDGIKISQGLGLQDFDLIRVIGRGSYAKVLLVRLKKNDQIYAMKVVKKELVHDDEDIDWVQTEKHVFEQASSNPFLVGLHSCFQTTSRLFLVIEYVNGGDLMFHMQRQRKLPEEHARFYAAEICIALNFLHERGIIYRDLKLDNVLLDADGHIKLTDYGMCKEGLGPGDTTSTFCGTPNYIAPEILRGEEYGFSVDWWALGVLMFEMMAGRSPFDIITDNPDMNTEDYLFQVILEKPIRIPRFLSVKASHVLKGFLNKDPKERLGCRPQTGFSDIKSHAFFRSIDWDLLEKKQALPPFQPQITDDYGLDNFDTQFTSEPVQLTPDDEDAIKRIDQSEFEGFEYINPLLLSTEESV
Sequence of Lymphokine-activated killer T-cell-originated protein kinase (Q96KB5 whole entry): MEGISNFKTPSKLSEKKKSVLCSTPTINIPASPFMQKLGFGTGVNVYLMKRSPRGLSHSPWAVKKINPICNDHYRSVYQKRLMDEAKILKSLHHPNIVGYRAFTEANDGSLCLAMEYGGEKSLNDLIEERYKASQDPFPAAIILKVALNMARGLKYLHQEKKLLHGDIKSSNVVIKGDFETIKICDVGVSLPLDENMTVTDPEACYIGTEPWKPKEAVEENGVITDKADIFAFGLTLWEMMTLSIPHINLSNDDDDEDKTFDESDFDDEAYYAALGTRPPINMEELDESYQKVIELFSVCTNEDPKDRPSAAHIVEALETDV
Sequence of Serine/threonine-protein kinase PLK4 (O00444 whole entry): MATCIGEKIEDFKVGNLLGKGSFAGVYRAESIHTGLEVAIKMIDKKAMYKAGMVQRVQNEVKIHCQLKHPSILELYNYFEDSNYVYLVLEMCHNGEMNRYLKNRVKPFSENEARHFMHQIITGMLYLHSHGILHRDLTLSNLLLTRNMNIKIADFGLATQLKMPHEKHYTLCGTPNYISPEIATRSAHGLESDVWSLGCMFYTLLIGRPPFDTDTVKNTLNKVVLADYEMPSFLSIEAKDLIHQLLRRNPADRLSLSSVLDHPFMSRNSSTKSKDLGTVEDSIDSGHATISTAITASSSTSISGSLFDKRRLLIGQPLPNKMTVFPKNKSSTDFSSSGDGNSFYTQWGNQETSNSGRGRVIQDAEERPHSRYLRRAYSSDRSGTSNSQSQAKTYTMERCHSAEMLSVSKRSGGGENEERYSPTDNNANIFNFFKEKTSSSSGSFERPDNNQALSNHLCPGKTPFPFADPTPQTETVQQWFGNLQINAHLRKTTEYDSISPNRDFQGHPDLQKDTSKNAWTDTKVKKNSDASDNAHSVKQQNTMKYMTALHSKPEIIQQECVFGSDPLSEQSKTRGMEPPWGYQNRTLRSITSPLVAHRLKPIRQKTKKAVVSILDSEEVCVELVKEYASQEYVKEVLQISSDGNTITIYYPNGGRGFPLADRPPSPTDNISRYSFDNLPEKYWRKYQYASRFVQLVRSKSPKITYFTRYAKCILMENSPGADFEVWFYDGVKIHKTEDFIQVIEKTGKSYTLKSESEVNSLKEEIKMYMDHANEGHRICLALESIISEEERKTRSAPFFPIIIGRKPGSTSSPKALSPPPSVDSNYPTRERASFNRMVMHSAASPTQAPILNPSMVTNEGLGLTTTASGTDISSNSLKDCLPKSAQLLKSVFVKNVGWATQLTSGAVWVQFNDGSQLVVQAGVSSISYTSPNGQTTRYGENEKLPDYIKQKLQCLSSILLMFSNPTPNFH
Sequence of Serine/threonine-protein kinase pim-2 (Q9P1W9 whole entry): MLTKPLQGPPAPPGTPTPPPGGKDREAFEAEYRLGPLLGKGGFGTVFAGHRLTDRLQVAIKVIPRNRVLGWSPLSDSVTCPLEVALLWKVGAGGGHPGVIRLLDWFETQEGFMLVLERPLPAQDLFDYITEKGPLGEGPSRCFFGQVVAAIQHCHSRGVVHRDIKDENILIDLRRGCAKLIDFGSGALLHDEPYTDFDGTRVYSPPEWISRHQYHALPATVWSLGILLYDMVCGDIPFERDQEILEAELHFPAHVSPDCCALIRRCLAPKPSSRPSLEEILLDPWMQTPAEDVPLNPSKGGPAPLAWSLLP
Sequence of Calcium/calmodulin-dependent protein kinase type 1 (Q14012 whole entry): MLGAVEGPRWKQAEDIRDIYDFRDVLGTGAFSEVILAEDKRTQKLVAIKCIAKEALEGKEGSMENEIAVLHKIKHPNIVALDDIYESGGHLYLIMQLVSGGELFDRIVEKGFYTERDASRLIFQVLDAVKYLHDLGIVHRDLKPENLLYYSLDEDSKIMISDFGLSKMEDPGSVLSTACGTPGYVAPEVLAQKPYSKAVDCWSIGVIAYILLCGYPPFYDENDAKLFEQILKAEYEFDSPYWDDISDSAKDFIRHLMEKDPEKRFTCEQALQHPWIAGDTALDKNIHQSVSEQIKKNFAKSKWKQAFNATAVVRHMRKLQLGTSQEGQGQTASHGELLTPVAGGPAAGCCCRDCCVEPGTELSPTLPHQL

Cc1cc(NC(c2ccc(Cl)cc2)c2ccc3cccnc3c2O)no1 (stereo unspecified)
EC50 (cells): 6450 nM (active)

OCC[n+]1c2ccccc2nc2ccc(N3CCOCC3)cc21
AC50 [1]: 6780 nM (active)

CS(=O)(=O)N(Cc1ccc2[nH]c(=O)c3cccn3c2c1)C1CC1
Ki [2]: > 7940 nM (inactive) | Ki [3]: 251 nM (active) | Ki [4]: 251 nM (active) | Ki [5]: > 7940 nM (inactive) | Ki [6]: > 1580 nM (inactive) | Ki [7]: 50.1 nM (active) | Ki [8]: 31.6 nM (active) | Ki [9]: > 7940 nM (inactive) | Ki [10]: > 10000 nM (inactive) | Ki [11]: 31.6 nM (active) | Ki [12]: > 5010 nM (inactive) | Ki [13]: > 1580 nM (inactive) | Ki [14]: 2000 nM (active) | Ki [15]: > 2510 nM (inactive)
